Laboratory results reported in paper PMC7830597, “Derivatives of Tenuazonic Acid as Potential New Multi-Target Anti-Alzheimer’s Disease Agents” (Biomolecules, 2021).
Marks after values point to notes of the source that are not given here.

What was measured:
[1] = Metal complexation, Zn(II)/L system; assay type: physicochemical; settings: for log β(ZnmHhLl): potentiometric, 15% w/w DMSO/water
Method: (§1) The chelating ability of compound 1 towards Fe(III), Cu(II) and Zn(II) was evaluated through the determination of the global formation constants of the complexes via pH-potentiometric and spectrophotometric titrations of the respective 1:1, 1:2 and 1:3 M/L systems in 15% w/w DMSO/water. The fitting analysis of the respective pH-potentiometric curves was done via Hyperquad 2008 [36] while that of the spectrophotometric absorption spectra was performed using Psequad, and the found equilibrium models are presented in Table 2. Compound 1 was chosen because of its better profile after preliminary assays (i.e., good AChE inhibition and antioxidant activity, as well as good ability to inhibit Cu^2+-induced Aβ aggregation).
To the best of our knowledge, the determination of stability formation constants of the complexes with TA has not yet been done and so the herein calculated values for compound 1 cannot be compared with those from the literature. The metal complexation equilibrium models of compound 1 were determined by the following process: for the Fe/L and Cu/L systems, only spectrophotometric data was used due to the better quality of the experimental results obtained [the 1:1 titration (e.g., Figure 7)] allowed the determination of the stability constant corresponding to the ML species and then this value, as well as the respective spectra, was introduced in the fitting of Fe/L 1:3 or Cu/L 1:2 data]; for the Zn/L system, potentiometric data was used. […]
Titrations of the selected compound 1, alone or in the presence of the metal ions, were accomplished in a 15% w/w DMSO/H2O medium, at T = 25.0 ± 0.1 °C and ionic strength (I) 0.1 M KCl, by using 0.1 M KOH as titrant. Both glass and Ag/AgCl reference electrodes were previously conditioned in different DMSO/H2O mixtures of increasing DMSO % composition and the response of the glass electrode was evaluated by strong acid–strong base (HCl/KOH) calibrations with the determination of the Nernst parameters by Gran’s method. […]

Solubility in water = assay type: physicochemical
Aβ1-42 = target: T1, Aβ1-42 (Homo sapiens, UniProt P05067); assay: Inhibition of Cu2+-induced Aβ1-42 aggregation, thioflavin T fluorescence; assay type: biochemical; settings: inhibitor 40 µM, copper 40 µM, read-out: Inhib. Aβ Aggreg. Cu2+-Induced
T1 construct: Amyloid β peptide (Aβ1-42) was purchased from GeneCust as a lyophilised powder; purchased GeneCust
Method: The anti-amyloidogenic activity of all the compounds was also evaluated in vitro, in the absence and in presence of Cu(II), by measuring the fluorescence emission of Thioflavin T (ThT). […] The Aβ self-aggregation inhibitory activity shown by all compounds is higher than that of parent compound TA, with the exception of compound 2 (probably due to solubility issues at the experimental conditions of the assays). The fact that the reference value previously reported by us for TA (50 ± 8%) was obtained for quite different conditions, including a much higher inhibitor concentration (100 μM instead of 40 μM) is noteworthy. […] This may be due to different electronic contributions between the ketone and the ester functions. Therefore, the ester derivatives seem to be better chelators compared to TA.
The spectrofluorimetric method, based on the fluorescence emission of thioflavin T (ThT), was used to study the Aβ1-42 aggregation inhibition. Firstly, Aβ1-42 was dissolved in HFIP (1,1,1,3,3,3-Hexafluoro-2-propanol) and kept overnight at room temperature in order to obtain a dry film. Then, the film was re-dissolved in CH3CN-Na2CO3 (300μM)/NaOH (250μM) (48.3/48.3/3.4 mL v/v/v) and then phosphate buffer (pH = 8) was added. The ligand solutions were prepared with MeOH (1mg/mL) and further with phosphate buffer. For the inhibition studies of copper-induced Aβ aggregation, a solution of CuCl2 240 μM was used. As a control, a solution of 30 μL of phosphate buffer and 30 μL of Aβ1-42 was used to observe the aggregation without any inhibition, while the ligand assay solutions were composed of 20 μL of phosphate buffer, 30 μL of Aβ1-42 and 10 μL of ligand. The Cu-induced aggregation studies were similarly conducted, adding 10 μL of CuCl2 to induce the fibril aggregation. Each experiment was composed of an assay and a blank sample, where the blank sample lacks Aβ1-42, to monitor the effect of the compounds on the fluorescence emission. The samples were left to incubate in a CERTOMAT WR water bath for 24 h at 37 °C with shaking. After 24 h, a Glycine-NaOH buffer (pH = 8.5) containing ThT were added to each sample in a microplate. The fluorescence signal was monitored at 446 nm (λexc) and 486 nm (λem) with a Varian Cary Eclipse fluorimeter. Amyloid β peptide (Aβ1-42) was purchased from GeneCust as a lyophilised powder and stored at −20 °C [12, 13, 14].

[2] = Metal complexation, Cu(II)/L system; assay type: physicochemical; settings: for log β(CumHhLl): spectrophotometric, 15% w/w DMSO/water
Method: as §1
To the best of our knowledge, the determination of stability formation constants of the complexes with TA has not yet been done and so the herein calculated values for compound 1 cannot be compared with those from the literature. The metal complexation equilibrium models of compound 1 were determined by the following process: for the Fe/L and Cu/L systems, only spectrophotometric data was used due to the better quality of the experimental results obtained [the 1:1 titration (e.g., Figure 7)] allowed the determination of the stability constant corresponding to the ML species and then this value, as well as the respective spectra, was introduced in the fitting of Fe/L 1:3 or Cu/L 1:2 data]; for the Zn/L system, potentiometric data was used. For the found metal complex models contained in Table 2, MH-2L, MH-1L2 and MH-2L2 correspond to mixed ligand-hydroxo metal complexes.
Titrations of the selected compound 1, alone or in the presence of the metal ions, were accomplished in a 15% w/w DMSO/H2O medium, at T = 25.0 ± 0.1 °C and ionic strength (I) 0.1 M KCl, by using 0.1 M KOH as titrant. Both glass and Ag/AgCl reference electrodes were previously conditioned in different DMSO/H2O mixtures of increasing DMSO % composition and the response of the glass electrode was evaluated by strong acid–strong base (HCl/KOH) calibrations with the determination of the Nernst parameters by Gran’s method. […] The spectrophotometric measurements were carried out in a 250–320 nm wavelength range at pH ca 2.5-8.0. Under the stated experimental conditions, the pKw value (13.6) was determined and subsequently used in the computations. The stepwise protonation constants of the ligands, Ki = [HiL]/[Hi-1L][H], and the overall metal–complex stability constants, β (MmHhL1) = [MmHhLl]/[M]^m[H]^h[L]^l, were calculated by fitting the pH-potentiometric and spectrophotometric data with, respectively, Hyperquad 2008 [36] and Psequad programs. The metal hydrolysis model was determined under the defined experimental conditions (I = 0.1 M KCl, 15% w/w DMSO/H2O, T = 25.0 ± 0.1 °C) and the following values of stability constants were included in the fitting of the experimental data towards the equilibrium models related to the Fe(III)/L, Cu(II)/L and Zn(II)/L systems: log β (FeH-1) = −1.79, log β (FeH-2) = −4.9, log β (FeH-4) = −20.0; log β (Cu2H-2) = −9.5; log β (ZnH-1) = −8.6, log β (ZnH-3) = −27.2, log β (Zn2H-1) = −8.6. The species distribution curves were obtained with the Hyss program.

[3] = Radical scavenging activity, DPPH method; settings: DPPH assay; mean ± SEM of 3 independent experiments
Method: Therefore, they were assayed for radical scavenging activity using the DPPH method.
The final volume of the assay was 3.5 mL, corrected with MeOH to obtain different concentrations of our compound in each assay. The control solution was composed of MeOH and DPPH [14]. After 30 min, at RT, protected from light, the absorbance was measured at 517 nm (Perkin Elmer Lambda 35 spectrophotometer equipped with a temperature programmer PTP 1þ1 Peltier System, using thermostated (T¼25.0 ± 0.1 °C) 1 cm path length cells), against a blank solution (MeOH). The assays were performed in triplicate, in which the EC50 was obtained through the graphical representation of the %AA vs. the inhibitor concentration.

[4] = pH 7.4, CL/CM = 10, CM = 10^−6 M

T1 sequence (P05067 672-713 limits assumed): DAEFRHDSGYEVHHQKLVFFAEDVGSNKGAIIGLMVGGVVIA

Row | SMILES | pZn (pM = −log[M]) [1, 4] | log β(ZnmHhLl) ([1]; species (1-21)) | log β(ZnmHhLl) ([1]; species (101)) | solubility in water (Solubility in water) | inhibition at 40 µM (Aβ1-42) | Kd ([2]; calculated at pH 7.4, read-out: conditional dissociation constant (K’d) for the copper complex) | pCu (pM = −log[M]) [2, 4] | log β(CumHhLl) ([2]; species (1-12)) | log β(CumHhLl) ([2]; species (1-21)) | log β(CumHhLl) ([2]; species (101)) | Antioxidant Activity EC50 [3]
1 | CCOC(=O)C1=C(O)C(C(C)C)NC1=O (stereo not shown) [Compound 1, Ethyl 4-hydroxy-5-isopropyl-2-oxo-2,5-dihydro-1H-pyrrole-3-carboxylate] | 6.0 | −11.75(5) ^c | 3.16(8) ^c | insoluble in water | 36.6% | 83 µM | 11.6 | 6.56(6) ^d | −4.15(7) ^d | 4.08(8) ^d | 10.8 ± 0.2 µmol/µmol of DPPH
2 | CCOC(=O)C1=C(O)C(Cc2ccccc2)NC1=O (stereo not shown) [Compound 2, Ethyl 5-benzyl-4-hydroxy-2-oxo-2,5-dihydro-1H-pyrrole-3-carboxylate] |  |  |  |  | 28.2% |  |  |  |  |  | 6.3 ± 0.1 µmol/µmol of DPPH
